Target: T1, human recombinant mGluR5 (Homo sapiens, UniProt P41594)
T1 construct: expressed in transfected cells; host or cells: HEK 293
Test: positive modulation of mGluR5, calcium based FLIPR assay
Settings: HEK 293 cell line expressing human recombinant mGluR5; EC50 of the modulation from peak Ca fluorescence signal after glutamate at approx. 5% basal stimulation
Procedure: The positive modulation of mGluR5 is measured in a HEK 293 cell line expressing human recombinant mGluR5 and is detected with calcium based FLIPR assay. The cells are cultured with DMEM supplemented with 10% FCS, 2 μg/mL tetracycline, 100 μg/mL hygromycin and 500 μg/mL geneticin. The cell culture media is exchanged for tetracycline-free cell culture media 3-7 days before the assay. One day before the assay the cell culture medium is exchanged to DMEM without glutamine and phenol red and supplemented with 10% FCS, 100 μg/mL hygromycin and 500 μg/mL geneticin. On the assay day, the medium of the subconfluent cultures is removed and the cells are detached by addition of 2.5 ml EDTA (0.02%) per 175 cm2 culture flask for 1 minute. The cells are resuspend in Ringer solution (140 mM NaCl, 5 mM KCl, 2.5 mM CaCl2, 1.5 mM MgCl2, 5 mM Glucose, 10 mM Hepes; adjusted to pH 7.4 with NaOH), pooled and Ringer solution added to adjust the volume to 50 mL. The cell suspension is centrifuged for […] at 1500 U/min (425 g). The supernatant is removed and the cells washed a second time with 50 ml fresh Ringer solution and centrifuged again as before. The supernatant is again removed and the pellet resuspended in Ringer solution to 1,000,000 cells/ml (1×10^6 cells/mL). The cells are plated onto BD BioCoat Poly-D-Lysine 384 well plates (20.000 cells/well; 20 μl/well). The lid covered plates are then incubated until use at 37° C./10% CO2. For dye loading, 20 μl of Calcium-4 assay kit solution (prepared according to the manufacturer's description in Ringer solution) are added to the cells and the plates are incubated for […] 37° C. and then […] at room temperature.
Controls, Compound Dilution and Assay Execution:
Each assay plate contained wells with “high” and “low” controls:
Low controls 1% DMSO/ringer solution+basal glutamate activation (defined as 100% CTL).
High controls 10 μM CDPPB+basal glutamate activation (defined as 200% CTL).
Test compounds are dissolved and diluted in DMSO to 100-fold the desired concentrations. In a second step, the compounds are diluted in Ringer solution such that the compounds are 4-fold more concentrated than the desired final assay concentration. The final DMSO concentration was 1%.
20 μl of each compound solution are then transferred to the assay plate and the Ca2+ kinetic is measured to determine any intrinsic compound activity. After 5 mM incubation in the FLIPR device, the second stimulation with 20 μl of glutamate in Ringer solution (glutamate concentration adjusted to approximately 5% basal stimulation of the maximal possible glutamate effect) is added and the kinetic Ca2+ response of the wells was measured for the modulation effect.
The peak height of the Ca release related fluorescence signal (9-66) is used for the EC50. The EC50 of the modulation is calculated over a nonlinear regression with GraphPad Prism (Table 1).

T1 sequence (P41594 21-1212): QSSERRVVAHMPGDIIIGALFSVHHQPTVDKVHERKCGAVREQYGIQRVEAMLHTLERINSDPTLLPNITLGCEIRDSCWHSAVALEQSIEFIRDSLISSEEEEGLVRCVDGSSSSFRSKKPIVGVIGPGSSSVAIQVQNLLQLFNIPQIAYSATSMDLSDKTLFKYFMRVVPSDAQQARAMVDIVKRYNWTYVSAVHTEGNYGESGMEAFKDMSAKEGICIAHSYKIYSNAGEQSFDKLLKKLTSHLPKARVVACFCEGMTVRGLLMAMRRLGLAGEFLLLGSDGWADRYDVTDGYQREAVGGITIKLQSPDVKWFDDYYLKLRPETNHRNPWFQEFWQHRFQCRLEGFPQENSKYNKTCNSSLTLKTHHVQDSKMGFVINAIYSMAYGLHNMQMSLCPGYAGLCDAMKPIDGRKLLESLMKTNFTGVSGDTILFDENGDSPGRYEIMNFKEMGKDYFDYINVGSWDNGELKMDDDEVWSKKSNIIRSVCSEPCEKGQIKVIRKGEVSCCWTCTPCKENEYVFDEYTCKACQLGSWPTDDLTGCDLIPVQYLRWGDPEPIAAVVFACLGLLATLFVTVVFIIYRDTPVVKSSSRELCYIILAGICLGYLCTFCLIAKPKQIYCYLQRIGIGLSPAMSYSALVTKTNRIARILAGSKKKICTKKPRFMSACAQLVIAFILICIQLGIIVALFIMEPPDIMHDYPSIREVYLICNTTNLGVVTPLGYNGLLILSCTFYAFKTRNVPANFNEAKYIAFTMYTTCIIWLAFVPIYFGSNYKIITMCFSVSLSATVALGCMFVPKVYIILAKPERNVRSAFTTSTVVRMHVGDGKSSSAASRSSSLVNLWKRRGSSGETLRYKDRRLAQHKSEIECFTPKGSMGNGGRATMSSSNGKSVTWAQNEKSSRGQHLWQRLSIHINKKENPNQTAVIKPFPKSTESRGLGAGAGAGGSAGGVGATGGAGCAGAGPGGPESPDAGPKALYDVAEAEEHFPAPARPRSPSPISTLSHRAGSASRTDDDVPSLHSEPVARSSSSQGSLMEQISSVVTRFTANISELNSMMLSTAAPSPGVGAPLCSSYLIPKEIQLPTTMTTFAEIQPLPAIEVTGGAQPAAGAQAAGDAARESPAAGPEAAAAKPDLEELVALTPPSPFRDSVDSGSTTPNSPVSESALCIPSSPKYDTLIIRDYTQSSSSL

| SMILES | EC50 |
| --- | --- |
| Cc1cc(-c2cc(-c3ccccc3)nn2CC(=O)N2CCc3nc(C)sc3CC2)ccn1 [Example 7.01.064] | 1230 nM |
| CCc1cc(-c2ccc(F)c(C)c2)nn1CC(=O)N1CCc2ccc(OC)cc2CC1 [Example 7.01.065] | 173 nM |
| CCc1cc(-c2ccc(F)c(C)c2)nn1CC(=O)N1CCc2cc(-c3ccccc3)nnc2CC1 [Example 7.01.066] | 153 nM |
| CCc1cc(-c2ccc(F)c(C)c2)nn1CC(=O)N1CCc2nc(C)sc2C1 [Example 7.01.067] | 122 nM |
| CCc1cc(-c2ccc(F)c(C)c2)nn1CC(=O)N1CCc2nc(N)sc2C1 [Example 7.01.068] | 236 nM |
| CCc1cc(-c2ccc(F)c(C)c2)nn1CC(=O)N1CCc2nc(NC(C)=O)sc2CC1 [Example 7.01.069] | 380 nM |
| CCc1cc(-c2ccc(F)c(C)c2)nn1CC(=O)N1CCc2ccc(C(=O)OC)cc2CC1 [Example 7.01.070] | 128 nM |
| CCc1cc(-c2ccc(F)c(C)c2)nn1CC(=O)N1CCc2ccsc2CC1 [Example 7.01.071] | 233 nM |
| CCc1cc(-c2ccc(F)c(C)c2)nn1CC(=O)N1CCc2ccc(N)cc2CC1 [Example 7.01.072] | 245 nM |
| CCc1cc(-c2ccc(F)c(C)c2)nn1CC(=O)N1CCc2ncsc2CC1 [Example 7.01.073] | 84 nM |
| CCc1cc(-c2ccc(F)c(C)c2)nn1CC(=O)N1CCc2nc(C)sc2CC1C (stereo not shown) [Example 7.01.074] | 91 nM |
| CCc1cc(-c2ccc(F)c(C)c2)nn1CC(=O)N1CCc2oc(C)nc2C1 [Example 7.01.075] | 87 nM |
| CCc1cc(-c2ccc(F)c(C)c2)nn1CC(=O)N1CCc2ccsc2C1 [Example 7.01.076] | 412 nM |
| CCc1cc(-c2ccc(F)c(C)c2)nn1CC(=O)N1CCc2nc(C)oc2C1 [Example 7.01.077] | 110 nM |
| Cc1cc(-c2cc(-c3ccccc3)n(CC(=O)N3CCc4ncccc4C3)n2)ccc1F [Example 7.01.078] | 78 nM |
| COc1cc2c(cc1OC)CCN(C(=O)Cn1nc(-c3ccc(F)c(C)c3)cc1-c1ccccc1)CC2 [Example 7.01.079] | 447 nM |
| Cc1cc(-c2cc(-c3ccccc3)n(CC(=O)N3CCc4cnc(Nc5ccccc5)nc4CC3)n2)ccc1F [Example 7.01.080] | 277 nM |
| Cc1cc(-c2cc(-c3ccccc3)n(CC(=O)N3CCc4cc(=O)n(C)nc4CC3)n2)ccc1F [Example 7.01.081] | 30 nM |
| Cc1cc(-c2cc(-c3ccccc3)n(CC(=O)N3CCc4cc(-c5ccccc5)nnc4CC3)n2)ccc1F [Example 7.01.082] | 66 nM |
| COc1ccc2c(c1)CCN(C(=O)Cn1nc(-c3ccc(F)c(C)c3)cc1-c1ccccc1)CC2 [Example 7.01.083] | 86 nM |

| SMILES | EC50 |
| --- | --- |
| Cc1cc(-c2cc(-c3ccccc3)n(CC(=O)N3CCc4nc5ccccc5c(C)c4CC3)n2)ccc1F [Example 7.01.084] | 34 nM |
| Cc1nc2c(o1)CCN(C(=O)Cn1nc(-c3ccc(F)c(C)c3)cc1-c1ccccc1)C2 [Example 7.01.085] | 26 nM |
| Cc1cc(-c2cc(-c3ccccc3)n(CC(=O)N3CCc4ncc(C)n4CC3)n2)ccc1F [Example 7.01.086] | 274 nM |
| Cc1cc(-c2cc(-c3ccccc3)n(CC(=O)N3CCc4ccccc4C3)n2)ccc1F [Example 7.01.087] | 125 nM |
| COC(=O)c1ccc2c(c1)CCN(C(=O)Cn1nc(-c3ccc(F)c(C)c3)cc1-c1ccccc1)CC2 [Example 7.01.088] | 29 nM |
| Cc1nc2c(s1)CN(C(=O)Cn1nc(-c3ccc(F)c(C)c3)cc1-c1ccccc1)CC2 [Example 7.01.089] | 22 nM |
| Cc1cc(-c2cc(-c3ccccc3)n(CC(=O)N3CCc4ccccc4CC3)n2)ccc1F [Example 7.01.090] | 240 nM |
| COc1ccc2c(n1)CCN(C(=O)Cn1nc(-c3ccc(F)c(C)c3)cc1-c1ccccc1)CC2 [Example 7.01.091] | 37 nM |
| Cc1cc(-c2cc(-c3ccccc3)n(CC(=O)N3CCc4ncnc(-c5ccccc5)c4CC3)n2)ccc1F [Example 7.01.092] | 33 nM |
| Cc1cc(-c2cc(-c3ccccc3)n(CC(=O)N3CCc4nc(N)sc4C3)n2)ccc1F [Example 7.01.093] | 35 nM |
| Cc1cc(-c2cc(-c3ccccc3)n(CC(=O)N3CCc4nc(N)oc4CC3)n2)ccc1F [Example 7.01.094] | 90 nM |
| Cc1cc(-c2cc(-c3ccccc3)n(CC(=O)N3CCc4ccc(N)cc4CC3)n2)ccc1F [Example 7.01.095] | 53 nM |
| CC(=O)Nc1ccc2c(c1)CCN(C(=O)Cn1nc(-c3ccc(F)c(C)c3)cc1-c1ccccc1)CC2 [Example 7.01.097] | 109 nM |
| CCc1cc(-c2ccc(F)c(C)c2)nn1CC(=O)N1CCc2cn[nH]c2CC1 [Example 7.01.098] | 477 nM |
| Nc1nc2c(s1)CCN(C(=O)Cn1nc(-c3ccc(F)cc3)cc1-c1ccc(F)cc1)CC2 [Example 7.02.001, 1-(2-Amino-4,5,7,8-tetrahydro-thiazolo (4,5-d)azepin-6-yl)-2-[3,5-bis-(4-fluoro-phenyl)-pyrazol-1-yl]-ethanone] | 55 nM |
| O=C(Cn1nc(-c2ccccc2)cc1-c1ccccc1)N1CCc2nc(-c3ccccc3)nc(O)c2C1 [Example 7.02.002] | 1170 nM |
| O=C(Cn1nc(-c2ccccc2)cc1-c1ccccc1)N1CCN(c2ccccc2)C(=O)C1 [Example 7.02.003] | 925 nM |
| O=C(Cn1nc(-c2ccccc2)cc1-c1ccccc1)N1CCc2ncsc2CC1 [Example 7.02.004] | 689 nM |
| O=C(Cn1nc(-c2ccccc2)cc1-c1ccccc1)N1CCc2nc(-c3ccccc3)ncc2C1 [Example 7.02.005] | 1260 nM |
| COc1cc2c(cc1OC)CN(C(=O)Cn1nc(-c3ccccc3)cc1-c1ccccc1)CC2 [Example 7.02.006] | 1950 nM |

| SMILES | EC50 |
| --- | --- |
| O=C(Cn1nc(-c2ccccc2)cc1-c1ccccc1)N1CCC(c2noc3ccccc23)CC1 [Example 7.02.007] | 600 nM |
| Cc1nc(C2CCN(C(=O)Cn3nc(-c4ccccc4)cc3-c3ccccc3)CC2)oc1C [Example 7.02.008] | 997 nM |
| O=C(Cn1nc(-c2ccccc2)cc1-c1ccccc1)N1CCN(c2nc3ccccc3o2)CC1 [Example 7.02.009] | 220 nM |
| Cc1nc2c(s1)CCN(C(=O)Cn1nc(-c3ccc(F)cc3)cc1-c1ccc(F)cc1)CC2 [Example 7.02.010] | 13 nM |
| Cc1nc2c(s1)CN(C(=O)Cn1nc(-c3ccc(F)cc3)cc1-c1ccc(F)cc1)C2 [Example 7.02.011] | 37 nM |
| COc1cccc(N2CCN(C(=O)Cn3nc(-c4ccc(F)cc4)cc3-c3ccc(F)cc3)CC2=O)c1 [Example 7.02.012] | 47 nM |
| Cc1cc(-c2cc(-c3ccccc3)n(CC(=O)N3CCC(c4ccccn4)CC3)n2)ccc1F [Example 7.02.013] | 92 nM |
| Cc1cc(-c2cc(-c3ccccc3)n(CC(=O)N3CC=C(c4ncccn4)CC3)n2)ccc1F [Example 7.02.014] | 21 nM |
| Cc1nc2c(s1)CCN(C(=O)Cn1nc(-c3ccc(F)c(C)c3)cc1-c1ccccc1)CC2 [Example 7.02.015] | 15 nM |
| Cc1cc(-c2cc(-c3ccccc3)n(CC(=O)N3CCC(c4ncccn4)CC3)n2)ccc1F [Example 7.02.016] | 110 nM |
| Cc1cc(-c2cc(-c3ccccc3)n(CC(=O)N3CCC(c4nnc(C(C)C)o4)CC3)n2)ccc1F [Example 7.02.017] | 68 nM |
| Cc1cc(-c2cc(-c3ccccc3)n(CC(=O)N3CCC(C)(c4nnc(C(C)C)o4)CC3)n2)ccc1F [Example 7.02.018] | 693 nM |
| Cc1nnc(C2CCN(C(=O)Cn3nc(-c4ccc(F)c(C)c4)cc3-c3ccccc3)CC2)o1 [Example 7.02.019] | 36 nM |
| Cc1nc2c(s1)CN(C(=O)Cn1nc(-c3ccc(F)c(C)c3)cc1-c1ccccc1)C2 [Example 7.02.020] | 21 nM |
| COc1cc(C2CCN(C(=O)Cn3nc(-c4ccc(F)c(C)c4)cc3-c3ccccc3)CC2)ncn1 [Example 7.02.021] | 55 nM |
| COc1cc(C2=CCN(C(=O)Cn3nc(-c4ccc(F)c(C)c4)cc3-c3ccccc3)CC2)ncn1 [Example 7.02.022] | 11 nM |
| Cc1cc(-c2cc(-c3ccccc3)n(CC(=O)N3CCc4nc(N)sc4CC3)n2)ccc1F [Example 7.02.023] | 12 nM |
| CCc1cc(-c2ccc(F)c(C)c2)nn1CC(=O)N1CCc2nc(C)sc2CC1 [Example 7.02.024] | 29 nM |
